The values below come from ChEMBL document CHEMBL4138197, “Design, synthesis and pharmacological evaluation of N-(5-chloro-2,4-dihydroxybenzoyl)-(R)-N-arylmethyl-1,2,3,4-tetrahydro-3-isoquinolinecarboxamides as potent Hsp90 inhibitors” (Eur J Med Chem, 2018).

Active and inactive are the calls of the source. The calls are words filed in the database; no cut-off is given here.

Test [1] has as its target Heat shock protein HSP 90-alpha (Homo sapiens) (UniProt P07900). As to the kind of experiment: Inhibition of HSP90alpha in human MDA-MB-453 cells assessed as down-regulation of HER2 levels by Western blot analysis. Format: cell-based.
For test [2], the system named is MDA-MB-453. Put plainly: Cell cycle arrest in human MDA-MB-453 cells assessed as increase in accumulation at G0/G1 phase at 0.25 to 1 uM after 12 hrs by propidium iodide-staining based flow cytometry. Format: functional.
The subject of the next test is MDA-MB-231. As to the kind of experiment: Antiproliferative activity against human MDA-MB-231 cells by SRB assay. It counts as functional, cell-based.
Test [3] relates to MDA-MB-453. As to the kind of experiment: Induction of apoptosis in human MDA-MB-453 cells after 48 hrs by Annexin V-FITC/propidium iodide-staining based flow cytometry. It counts as functional, cell-based.
The subject of test [4] is MDA-MB-453. As to the kind of experiment: Induction of apoptosis in human MDA-MB-453 cells assessed as late apoptotic cells at 0.25 uM after 48 hrs by Annexin V-FITC/propidium iodide-staining based flow cytometry (reference value: 3.40%). Format: functional.
Test [5] relates to MDA-MB-453. Put plainly: Induction of apoptosis in human MDA-MB-453 cells assessed as necrotic cells at 0.25 uM after 48 hrs by Annexin V-FITC/propidium iodide-staining based flow cytometry (reference value: 0.01%). Format: functional.
The subject of test [6] is MDA-MB-453. Put plainly: Induction of apoptosis in human MDA-MB-453 cells assessed as early apoptotic cells at 1 uM after 48 hrs by Annexin V-FITC/propidium iodide-staining based flow cytometry (reference value: 1.65%). Format: functional.
Test [7] relates to MDA-MB-453. As to the kind of experiment: Induction of apoptosis in human MDA-MB-453 cells assessed as necrotic cells at 1 uM after 48 hrs by Annexin V-FITC/propidium iodide-staining based flow cytometry (reference value: 0.01%). Format: functional.
For test [8], the system named is MDA-MB-453. As to the kind of experiment: Induction of apoptosis in human MDA-MB-453 cells assessed as early apoptotic cells at 4 uM after 48 hrs by Annexin V-FITC/propidium iodide-staining based flow cytometry (reference value: 1.65%). Format: functional.
Test [9] deals with MDA-MB-453. Put plainly: Induction of apoptosis in human MDA-MB-453 cells assessed as increase in cleaved caspase3 activity at 0.25 uM up to 48 hrs in presence of z-VAD-fmk by Western blot analysis. Format: functional, cell-based.
The test system of test [10] is MDA-MB-453. As to the kind of experiment: Induction of apoptosis in human MDA-MB-453 cells assessed as increase in cleaved caspase7 activity at 0.25 uM up to 48 hrs in presence of z-VAD-fmk by Western blot analysis. It counts as functional, cell-based.
Test [11] has as its system MDA-MB-453. Put plainly: Induction of apoptosis in human MDA-MB-453 cells assessed as increase in cleaved PARP activity at 0.25 uM up to 48 hrs in presence of z-VAD-fmk by Western blot analysis. It counts as functional, cell-based.
Test [12] deals with MDA-MB-453. As to the kind of experiment: Induction of apoptosis in human MDA-MB-453 cells assessed downregulation of bcl-xl expression at 0.25 uM at 48 hrs by Western blot analysis. Format: functional, cell-based.
In test [13] the test system is MDA-MB-453. Put plainly: Induction of apoptosis in human MDA-MB-453 cells assessed upregulation of bid expression at 0.25 uM by Western blot analysis. It counts as functional, cell-based. As to conditions: TDE = time-dependent effect.
In test [14] the target is T1, Heat shock protein HSP90 (Homo sapiens) (UniProt P07900+P08238). As to the kind of experiment: Inhibition of HSP90 in human MDA-MB-453 cells assessed as suppression of TNFalpha-induced NFkappaB activation by measuring reduction in IKBalpha degradation at 0.25 uM after 24 hrs by Western blot analysis. Format: cell-based.
Test [15] deals with T1, Heat shock protein HSP90 (Homo sapiens). Put plainly: Inhibition of HSP90 in human MDA-MB-453 cells assessed as downmodulation of IKKalpha expression at 0.25 uM up to 48 hrs by Western blot analysis. It counts as cell-based.
Test [16] has as its target T2, MAP kinase p38 (Homo sapiens) (UniProt O15264+Q15759+Q16539+P53778). Put plainly: Induction of p38 phosphorylation in human MDA-MB-453 cells at 0.25 uM after 48 hrs by Western blot analysis. Format: cell-based.
Test [17] concerns the target T2, MAP kinase p38 (Homo sapiens). Put plainly: Induction of p38 in human MDA-MB-453 cells assessed as upregulation of Hsp27 phosphorylation at Ser82 at 0.25 uM after 2 hrs in presence of […] by Western blot analysis. Format: cell-based.
Test [18] has as its target T3, Inhibitor of nuclear factor kappa-B kinase subunit alpha (Homo sapiens) (UniProt O15111).
T3 sequence (whole entry): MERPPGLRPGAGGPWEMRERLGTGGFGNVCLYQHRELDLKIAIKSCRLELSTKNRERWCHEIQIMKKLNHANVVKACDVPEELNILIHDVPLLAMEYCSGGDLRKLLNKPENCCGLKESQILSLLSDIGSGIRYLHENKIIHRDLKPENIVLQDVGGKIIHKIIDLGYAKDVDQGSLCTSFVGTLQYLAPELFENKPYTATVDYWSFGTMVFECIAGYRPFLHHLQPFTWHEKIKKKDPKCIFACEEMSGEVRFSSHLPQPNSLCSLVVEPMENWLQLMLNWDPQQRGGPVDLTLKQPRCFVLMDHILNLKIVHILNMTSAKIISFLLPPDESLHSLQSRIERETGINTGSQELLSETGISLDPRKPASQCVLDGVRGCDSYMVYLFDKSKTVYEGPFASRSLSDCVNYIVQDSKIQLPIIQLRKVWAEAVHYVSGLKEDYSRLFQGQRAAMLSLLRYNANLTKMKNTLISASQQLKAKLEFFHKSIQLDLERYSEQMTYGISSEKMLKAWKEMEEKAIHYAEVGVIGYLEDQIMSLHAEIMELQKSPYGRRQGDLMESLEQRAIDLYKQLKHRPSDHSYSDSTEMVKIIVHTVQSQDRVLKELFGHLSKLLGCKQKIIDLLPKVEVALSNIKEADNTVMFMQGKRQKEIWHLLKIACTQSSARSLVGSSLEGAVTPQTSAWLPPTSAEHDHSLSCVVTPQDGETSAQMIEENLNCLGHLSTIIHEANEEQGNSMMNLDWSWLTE
As to the kind of experiment: Induction of IKKalpha association to hsp27 in human MDA-MB-453 cells at 0.25 uM after 6 hrs by immunoprecipitation and Western analysis. Format: cell-based.

Consider `O=C(NCc1ccncc1)[C@H]1Cc2ccccc2CN1C(=O)c1cc(Cl)c(O)cc1O`, for which the inhibition result in test [1] was “Dose-dependent effect”. Besides, the result (with MDA-MB-453 [2]; in the test on MDA-MB-231; in the test with MDA-MB-453 [12]; in [16]; in test [18]) was Active. For the same compound, the Activity result in the test with MDA-MB-453 [3] was “Dose-dependent effect”; in the test with MDA-MB-453 [4], 4.19%; in the test on MDA-MB-453 [5], 0.02%; with MDA-MB-453 [6], 15.88%; in the test with MDA-MB-453 [7], 0.03%; with MDA-MB-453 [8], 23.49%. In addition, in the test on MDA-MB-453 [13], the Activity entry was “Tde”. The result (in the test on MDA-MB-453 [9]; with MDA-MB-453 [10]; in the test on MDA-MB-453 [11]; in [17]) was inactive. In addition, the inhibition result in test [14] and in test [15] was “Active” in each case.
